One experiment deals with pre-diabetes. As to conditions: metformin therapy, background statement; cited from earlier work.
Experiment [1] deals with models of insulin resistance. The experiment can be described thus: Deuterated water production from deuterated glucose in models of insulin resistance, response to insulin-sensitizing therapies. As to conditions: response to administration of insulin-sensitizing therapies in models of insulin resistance. The experiment is classed as in vivo. An excerpt: Accordingly, the maintenance of normal absolute heavy water production in the face of insulin resistance was highly informative—“normal” heavy water production in this setting represented sufficiency (adequacy) of the pancreatic beta-cell response to the insulin resistance present. […] Full characterization of DM2 susceptibility and progression is thereby enabled through a simple, easily performed and widely usable test.

`CN(C)C(=N)N=C(N)N` [metformin]: in the experiment with pre-diabetes, the pancreatic insulin secretion result was “improve pancreatic insulin secretion” and the “progression to DM2” value is on record as “prevent progression to DM2”. Also, the deuterated water production entry in experiment [1] is recorded as “increased”.

The values are drawn from patent US8741589B2, “Monitoring two dimensions of diabetes pathogenesis” (The Regents of the University of California, priority 2005, dated 2014).
